Molecules are shown by their SMILES. Some results are limits rather than exact numbers.

Data on 22 compounds can be found in patent US20260297070A1, “CYCLIC [COMPOUND LEFT OUT] WRN INHIBITORS” (Nimbus Wadjet, Inc., priority 2023, published 2026).

The target of the test is T1, human Werner helicase (WRN-BV08, Uniprot Q14191, amino acids 517-1235 with L1074F point mutation) (Homo sapiens, UniProt Q14191, L1074F).
T1 construct: Uniprot Q14191, amino acids 517-1235 with L1074F point mutation; TEV-cleavable 8×His (C, cleaved yes); made in house; host or cells: Sf9 insect cells (baculovirus)
T1 sequence (Q14191 with tags, fused parts or gaps L1074F limits assumed): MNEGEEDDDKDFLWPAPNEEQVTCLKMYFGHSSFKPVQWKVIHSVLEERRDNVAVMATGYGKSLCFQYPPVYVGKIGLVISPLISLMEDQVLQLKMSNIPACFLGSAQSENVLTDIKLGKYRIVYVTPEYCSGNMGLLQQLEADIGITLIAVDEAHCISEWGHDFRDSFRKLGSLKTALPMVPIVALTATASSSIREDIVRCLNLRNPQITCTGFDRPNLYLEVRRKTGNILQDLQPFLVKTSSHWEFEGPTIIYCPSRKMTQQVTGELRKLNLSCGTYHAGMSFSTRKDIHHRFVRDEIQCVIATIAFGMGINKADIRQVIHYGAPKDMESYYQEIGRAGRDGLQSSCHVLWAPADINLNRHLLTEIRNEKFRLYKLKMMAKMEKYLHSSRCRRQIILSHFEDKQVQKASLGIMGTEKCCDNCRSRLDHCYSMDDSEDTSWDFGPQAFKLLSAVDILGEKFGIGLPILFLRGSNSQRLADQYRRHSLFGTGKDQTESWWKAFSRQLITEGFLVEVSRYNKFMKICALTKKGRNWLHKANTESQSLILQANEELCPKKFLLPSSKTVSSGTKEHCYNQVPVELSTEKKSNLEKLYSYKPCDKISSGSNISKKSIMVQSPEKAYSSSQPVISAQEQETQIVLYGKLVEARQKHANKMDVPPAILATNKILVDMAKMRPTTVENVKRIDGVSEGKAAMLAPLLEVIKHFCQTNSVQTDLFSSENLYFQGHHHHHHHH
As to the kind of experiment: WRN (BV08) ADP-Glo Assay. It counts as biochemical. The note with it: 0.15 nM WRN, 5 μM ATP, 0.1 nM DNA duplex, 15 min preincubation, 60 min at 25° C., pH 7.5, 1% DMSO; read-out: ADP-Glo_hWRN_IC50. An excerpt:
Example 2: WRN (BV08) ADP-Glo Assay Protocol
Bovine skin gelatin (BSG), dimethyl sulfoxide (DMSO), Pluronic F-127 and Tris(2-carboxyethyl)phosphine hydrochloride solution (TCEP) were purchased from Sigma-Aldrich at the highest level of purity possible. Bicine buffer solution was purchased from Alfa Aesar and compound NSC-617145 was purchased from Tocris. DNA duplex was synthesized at BGI (Shenzhen, China) and was composed of strand 1 with the sequence 5′-[…]-3′ (SEQ ID NO.: 1) and strand 2 with the sequence 5′-[…]-3′ (SEQ ID NO.: 2). DNA strands were annealed by heating to 95° C. for 5 minutes followed by slow cooling to room temperature. Compounds in 100% DMSO (0.1 μl) were spotted into a 384-well white polystyrene Optiplate-384 (Perkin Elmer) assay plate using a LabCyte Echo 550 (Agilent). DMSO (0.1 μl) was added to columns 12, rows A-H and column 24, rows I-P for the maximum signal control. Compound NSC-617145 (0.1 μl) was added to columns 12, rows I-P and 24, rows A-H for the minimum signal control (100% inhibition). Compounds/DMSO were preincubated for 15 minutes at 25° C. with 5 uL 2×WRN (BV08), prepared as described below, in assay buffer containing 20 mM Bicine (pH=7.5), 1 mM MgCl2, 10 mM KCl, 0.1% Pluronic F-127, 0.005% BSG, 1 mM TCEP. The reaction was initiated by the addition of 5 μl 2× substrate mixture in assay buffer and incubated for 60 minutes at 25° C. The final concentrations of the assay components were 0.15 nM WRN, 5 μM ATP, and 0.1 nM DNA duplex. The final DMSO concentration was 1% and the reference compound concentration (NSC-617145) used for the minimal signal control was 20 μM. The reaction was stopped by the addition of the ADP-Glo Kit components (Promega) as directed and the relative luminescence units (RLU) were read on an Envision 2104 (Perkin Elmer).
% Inhibition Calculation:
Where RLU=relative luminescence units, sample=signal in sample well, and MIN and MAX are the respective minimum and maximum signal controls.
Four-Parameter IC50 Fit Equation:
Where top and bottom are normally allowed to float but may be fixed at 100 or 0 respectively in a 3-parameter fit. Y is the % inhibition and X is the compound concentration.
Molecular Biology and virus production. The DNA encoding human Werner helicase (Uniprot Q14191, amino acids 517-1235 with L1074F point mutation) was generated with codon-optimization for E. coli expression and subcloned into the pFastBac vector with a TEV cleavable 8×His tag (WRN-BV08). The baculovirus from the expression plasmid WRN-BV08 was generated from transfection and amplification following the manufacturer's instructions.
Sf9 cells grown in SF900II media were infected with 1:200 WRN-BV08 P2 virus and incubated for protein expression for 72 h at 27° C. The WRN protein was purified using the following protocol. The cell pellets were thawed and resuspended in buffer A (50 mM Tris, pH 7.5, 500 mM NaCl, 1 mM TCEP, 10% Glycerol) supplemented with 0.5% CHAPS, 1 mM [COMPOUND LEFT OUT], 1 μg/mL Leupeptin, 1 μg/mL Pepstatin, and the Pierce Universal Nuclease and cocktail tablet. Cleared lysates were loaded onto a Ni Sepharose™ excel column and washed with buffer A and bound protein was eluted with buffer A supplemented with 300 mM imidazole. The eluted protein was dialyzed against buffer A and digested by His-tagged TEV (1:5 ratio) overnight at 4° C. ZnCl2 was added into the sample at final 15 μM before loading onto a second Ni Sepharose™ excel column. Untagged WRN protein was eluted from the column with buffer A supplemented with 20 mM imidazole, dialyzed overnight into buffer B (50 mM Tris, pH 7.5, 1 mM TCEP, 10% Glycerol) supplemented with 150 mM NaCl and loaded onto a Heparin column. Proteins were eluted with a step gradient of buffer B supplemented with 150 mM, 200 mM, 300 mM and 500 mM NaCl. […]
(ADP-Glo turns the ADP formed in a reaction into a luminescent signal.)
As to `COc1cc(CN(C(=O)Cc2ccc([C@@H]3C[C@H]3C(F)(F)F)cc2)[C@@H]2C=CS(=O)(=O)C2)ccn1` (mixture of isomers) [I-784, N-[(3R)-1,1-dioxo-2,3-dihydro-1lambda6-thiophen-3-yl]-N-[(2-methoxypyridin-4-yl)methyl]-2-{4-[(1RS,2RS)-2-(trifluoromethyl)cyclopropyl]phenyl}acetamide], the IC50 was 5000 to 10000 nM.
As for `O=C([C@H]1CC[C@@H](c2ccccc2)O1)N(Cc1ccncc1)C1C=CS(=O)(=O)C1` (mixture of isomers) [I-652, rac-(2R,5S)-N-(1,1-dioxo-2,3-dihydro-1lambda6-thiophen-3-yl)-5-phenyl-N-[(pyridin-4-yl)methyl]oxolane-2-carboxamide], the IC50 is above 50000 nM.
The figure for `O=C([C@@H]1CC[C@@H](c2ccccc2)C1)N(Cc1ccncc1)C1C=CS(=O)(=O)C1` (mixture of isomers) [I-655, rac-(1R,3R)-N-(1,1-dioxo-2,3-dihydro-1lambda6-thiophen-3-yl)-3-phenyl-N-[(pyridin-4-yl)methyl]cyclopentane-1-carboxamide] is above 50000 nM.
As to `O=C([C@H]1CC[C@@H](C(F)(F)F)O1)N(Cc1ccncc1)C1C=CS(=O)(=O)C1` (mixture of isomers) [I-714, rac-(2R,5S)-N-(1,1-dioxo-2,3-dihydro-1lambda6-thiophen-3-yl)-N-[(pyridin-4-yl)methyl]-5-(trifluoromethyl)oxolane-2-carboxamide], the IC50 was above 50000 nM.
Under `O=C([C@@H]1[C@H]2C[C@]1(c1cccc(F)c1)CO2)N(Cc1ccncc1)C1C=CS(=O)(=O)C1` (mixture of isomers) [I-715, rac-(1R,4S,5S)-N-(1,1-dioxo-2,3-dihydro-1lambda6-thiophen-3-yl)-4-(3-fluorophenyl)-N-[(pyridin-4-yl)methyl]-2-oxabicyclo[2.1.1]hexane-5-carboxamide] stands above 50000 nM.
`O=C([C@H]1CC[C@@H](Cn2cccn2)O1)N(Cc1ccncc1)C1C=CS(=O)(=O)C1` (mixture of isomers) [I-716, rac-(2R,5S)-N-(1,1-dioxo-2,3-dihydro-1lambda6-thiophen-3-yl)-5-[(1H-pyrazol-1-yl)methyl]-N-[(pyridin-4-yl)methyl]oxolane-2-carboxamide]: the IC50 was above 50000 nM.
Regarding `O=C([C@@H]1[C@@H]2CC[C@@]1(c1cccc(Br)c1)C2)N(Cc1ccncc1)C1C=CS(=O)(=O)C1` (mixture of isomers) [I-755, rac-(1R,4R,5R)-1-(3-bromophenyl)-N-(1,1-dioxo-2,3-dihydro-1lambda6-thiophen-3-yl)-N-[(pyridin-4-yl)methyl]bicyclo[2.1.1]hexane-5-carboxamide], the IC50 is above 50000 nM.
Take `CC(C)(O)c1cc(CN(C(=O)Cn2cc(-c3cc(F)c(F)c(F)c3)cn2)C2C=CS(=O)(=O)C2)ccn1` (single isomer, unassigned) [I-1]: the IC50 is below 500 nM.
Take `COC(C(=O)N(Cc1ccnc(C(C)(C)O)c1)[C@@H]1C=CS(=O)(=O)C1)c1ccc(-c2ccc(F)c(F)c2)cc1F` (single isomer, unassigned) [I-2]: the IC50 is below 500 nM.
The figure for `O=C(Cc1ccc(S(F)(F)(F)(F)F)cc1)N(Cc1nc(C2CC2)cs1)C1C=CS(=O)(=O)C1` (single isomer, unassigned) [I-4] is below 500 nM.
Under `O=C(Cn1cc(-c2ccc(F)c(F)c2)cn1)N(Cc1nc(C2CC2)cs1)C1C=CS(=O)(=O)C1` (single isomer, unassigned) [I-5, N-((4-cyclopropylthiazol-2-yl)methyl)-2-(4-(3,4-difluorophenyl)-1H-pyrazol-1-yl)-N-(1,1-dioxido-2,3-dihydrothiophen-3-yl)acetamide] stands below 500 nM; under `CN(C)C(=O)C(C(=O)N(Cc1ccnc(C(C)(C)O)c1)C1C=CS(=O)(=O)C1)c1ccc(-c2ccc(F)cc2)cc1` (single isomer, unassigned) [I-8, N1-(-1,1-dioxido-2,3-dihydrothiophen-3-yl)-2-(4′-fluoro-[1,1′-biphenyl]-4-yl)-N1-((2-(2-hydroxypropan-2-yl)pyridin-4-yl)methyl)-N3,N3-dimethylmalonamide], below 500 nM; under `COC(C(=O)N(Cc1ccnc(C(C)(C)O)c1)C1C=CS(=O)(=O)C1)c1ccc(-c2ccc(F)cc2)cc1F` (single isomer, unassigned) [I-10, (2R*)-2-{3,4′-difluoro-[1,1′-biphenyl]-4-yl}-N-[(3R**)-1,1-dioxo-2,3-dihydro-1lambda6-thiophen-3-yl]-N-{[2-(2-hydroxypropan-2-yl)pyridin-4-yl]methyl}-2-methoxyacetamide], below 500 nM.
Under `CC(C)(O)c1cc(CN(C(=O)Cc2ccc(-c3ccc(F)c(F)c3)cc2F)C2C=CS(=O)(=O)C2)ccn1` (single isomer, unassigned) [I-11] stands below 500 nM; under `CN(C)C(=O)C(C(=O)N(Cc1ccnc(C(C)(C)O)c1)C1C=CS(=O)(=O)C1)c1ccc(-c2ccc(F)cc2)cc1F` (single isomer, unassigned) [I-12, (2R**)-2-{3,4′-difluoro-[1,1′-biphenyl]-4-yl}-N-[(3R*)-1,1-dioxo-2,3-dihydro-1lambda6-thiophen-3-yl]-N-{[2-(2-hydroxypropan-2-yl)pyridin-4-yl]methyl}-N′,N′-dimethylpropanediamide], below 500 nM; under `CN(C)C(=O)C(C(=O)N(Cc1ccncc1)C1C=CS(=O)(=O)C1)c1ccc(-c2ccc(F)cc2)cc1` (single isomer, unassigned) [I-27, (2R**)-N′-[(3R*)-1,1-dioxo-2,3-dihydro-1lambda6-thiophen-3-yl]-2-{4′-fluoro-[1,1′-biphenyl]-4-yl}-N,N-dimethyl-N′-[(pyridin-4-yl)methyl]propanediamide], below 500 nM.
Take `COc1cc(CN(C(=O)Cc2ccc(-n3cccc3C)cc2F)C2C=CS(=O)(=O)C2)ccn1` (single isomer, unassigned) [I-31]: the IC50 is below 500 nM.
Under `COc1cc(CN(C(=O)C(OC)c2ccc(-c3ccc(F)cc3)cc2F)C2C=CS(=O)(=O)C2)ccn1` (single isomer, unassigned) [I-33, (2R*)-2-{3,4′-difluoro-[1,1′-biphenyl]-4-yl}-N-[(3R**)-1,1-dioxo-2,3-dihydro-1lambda6-thiophen-3-yl]-2-methoxy-N-[(2-methoxypyridin-4-yl)methyl]acetamide] stands below 500 nM; under `COc1cc(CN(C(=O)Cc2ccc(-c3ccc(F)c(F)c3)cc2F)C2C=CS(=O)(=O)C2)ccn1` (single isomer, unassigned) [I-35], below 500 nM.
On to `CC(C)(O)c1cc(CN(C(=O)Cc2ccc(-n3cccc3)cc2F)C2C=CS(=O)(=O)C2)ccn1` (single isomer, unassigned) [I-40], for which the IC50 was below 500 nM.
With `CC(C)(O)c1cc(CN(C(=O)Cc2ncc(-c3ccc(F)c(F)c3)cc2F)C2C=CS(=O)(=O)C2)ccn1` (single isomer, unassigned) [I-50, 2-(5-(3,4-difluorophenyl)-3-fluoropyridin-2-yl)-N-(1,1-dioxido-2,3-dihydrothiophen-3-yl)-N-((2-(2-hydroxypropan-2-yl)pyridin-4-yl)methyl)acetamide], the IC50 is below 500 nM.
Turning to `O=C(Cc1ccc(S(F)(F)(F)(F)F)cc1)N(Cc1ccncc1)C1C=CS(=O)(=O)C1` (single isomer, unassigned) [I-51], the IC50 is below 500 nM.
